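Following 48 hours of exposure in 96-well plates, responses at five concentrations were used to interpolate endpoints linearly. TGI is the concentration that stops growth completely.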
Tests used:
Experiment in all cases: NCI tumour cell line growth inhibition, 48 h
[1] = system: CAKI-1 renal
[2] = system: HOP-92 NSCLC
[3] = system: IGROV1 ovarian
[4] = system: KM20L2 colon
[5] = system: M19-MEL melanoma
[6] = system: SF-268 CNS
[7] = system: SNB-19 CNS
[8] = system: SR leukemia
[9] = system: SW-620 colon
[10] = system: MDA-MB-231 breast

SMILES	TGI [1] [µM]	TGI [2] [µM]	TGI [3] [µM]	TGI [4] [µM]	TGI [5] [µM]	TGI [6] [µM]	TGI [7] [µM]	TGI [8] [µM]	TGI [9] [µM]	TGI [10] [µM]
COC(=O)/C=C(/C(=O)OC)C1(C)c2cc(C(=O)OC)c(C(=O)OC)c(N)c2C(=N)N1c1ccccc1 (configuration not stated)	56.1	43.6	76.8	34.8	41.9	41	> 100	58.5	–	–
COC(=O)C1C(=O)O[C@@H](c2ccc3c(c2)OCO3)C1C(=O)OC (mixture of isomers)	> 100	> 100	> 100	> 100	> 100	> 100	> 100	> 100	> 100	–
CCOC(=O)c1nc(C)oc1C(F)(F)F	> 100	> 100	> 100	> 100	> 100	> 100	> 100	> 100	> 100	–
Cc1ccc(S(=O)(=O)OCC/C(=C\[Si](C)(C)C)c2ccccc2)cc1	> 100	> 100	> 100	> 100	> 100	> 100	> 100	> 100	> 100	–
NNC(=O)C(=O)N/N=C1/CCCC1C(=O)CCC(=O)Nc1ccc(Cl)cc1 (configuration not stated)	> 100	> 100	> 100	> 100	> 100	> 100	> 100	> 100	> 100	–
O=c1/c(=C/c2ccccc2[N+](=O)[O-])sc2nnc(-c3cccnc3)n12	2.78	> 100	> 100	> 100	> 100	> 100	32.1	> 100	24.5	–
CC1=C(C(=O)Nc2ccccc2)C(c2ccc(N(C)C)cc2)C(C(=O)Nc2ccccc2)=C(C)N1	> 100	> 94.6	> 88.3	7.26	> 28.9	> 71.6	> 100	> 92.8	> 83	> 100
O=C1/C(=C\c2ccccc2)CN(C(=O)CCN2CCCCC2)C/C1=C/c1ccccc1	3.74	10.2	4.48	2.97	1.78	4.51	4.57	14.5	0.364	3.29
Cc1nc(N)nc(CCC(=O)Nc2cccc(C(F)(F)F)c2)c1-c1ccc(Cl)cc1	> 100	> 100	> 100	> 100	> 100	> 100	> 100	56.8	> 100	–
